From patent US7109197B2, “N-phenyl-4-(4-pyridyl)-2-pyrimidineamine derivatives” (Syngenta Crop Protection, Inc., priority 2000, dated 2006)

Experiments:
Type in all cases: in vivo
Septoria nodorum = experiment: Assay B-12: Effect against Septoria nodorum/wheat (Septoria leaf spot on wheat); conditions: Septoria nodorum on wheat cv. Arina; 0.02% active substance, spray
Protocol: Assay B-12: Effect Against Septoria nodorum/Wheat (Septoria Leaf Spot on Wheat) 1 week old wheat plants cv. Arina are treated with a formulated test compound (0.02% active substance) in a spray chamber. One day after application wheat plants are inoculated by spraying a spore suspension (5×10^5 conidia/ml) on the test plants. After an incubation period of 1 day at 20° C. and 95% r.h. plants are kept for 10 days at 20° C. and 60% r.h. in a greenhouse. The disease incidence is assessed 11 days after inoculation.

[1] = system: Pyrenophora teres (Helminthosporium); experiment: Assay B-10: Effect against Pyrenophora teres (Helminthosporium)/barley (net blotch on barley); conditions: Pyrenophora teres on barley cv. Regina; 0.02% active substance, spray
Protocol: Assay B-10: Effect Against Pyrenophora teres (Helminthosporium)/Barley (Net Blotch on Barley) 1 week old barley plants cv. Regina are treated with a formulated testcompound (0.02% active substance) in a spray chamber. Two days after application barley plants are inoculated by spraying a spore suspension (3×10^4 conidia/ml) on the test plants. After an incubation period of 2 days at 20° C. and 95% r.h. plants are kept for 2 days at 20° C. and 60% r.h. in a greenhouse. The disease incidence is assessed 4 days after inoculation.

Botrytis cinerea = experiment: Assay B-8: Effect against Botrytis cinerea/tomato (Botrytis on tomatoes); conditions: Botrytis cinerea on tomato cv. Roter Gnom; 0.02% active substance, spray
Protocol: Assay B-8: Effect Against Botrytis cinerea/Tomato (Botrytis on Tomatoes) 4 week old tomato plants cv. Roter Gnom are treated with the formulated testcompound 0.02% active substance) in a spray chamber. Two days after application tomato plants are inoculated by spraying a spore suspension (1×10^5 conidia/ml) on the test plants. After an incubation period of 4 days at 20° C. and 95% r. h. in a greenhouse the disease incidence is assessed.

| SMILES | B12 activity (Septoria nodorum) | B10 activity [1] | B8 activity (Botrytis cinerea) |
| --- | --- | --- | --- |
| CS(=O)(=O)O.NCCCNc1cc(-c2ccnc(Nc3cccc(Cl)c3)n2)ccn1 [Compound 48] | + (the activity observed in the corresponding test system is 70% or more) | + (the activity observed in the corresponding test system is 70% or more) | + (the activity observed in the corresponding test system is 70% or more) |
| CN(C)C=Nc1cc(-c2ccnc(Nc3cccc(Cl)c3)n2)ccn1 [Compound 97] | + (the activity observed in the corresponding test system is 70% or more) | + (the activity observed in the corresponding test system is 70% or more) | + (the activity observed in the corresponding test system is 70% or more) |
| CCN(COC)c1cc(-c2ccnc(Nc3cccc(Cl)c3)n2)ccn1 [Compound 98] | – | + (the activity observed in the corresponding test system is 70% or more) | – |
| Clc1cccc(Nc2nccc(-c3ccnc(NCCCOc4ncccn4)c3)n2)c1 [Compound 94] | – | + (the activity observed in the corresponding test system is 70% or more) | + (the activity observed in the corresponding test system is 70% or more) |
| CC(CCn1ccnc1)Nc1cc(-c2ccnc(Nc3cccc(Cl)c3)n2)ccn1 (centres unmarked) [Compound 16] | + (the activity observed in the corresponding test system is 70% or more) | + (the activity observed in the corresponding test system is 70% or more) | + (the activity observed in the corresponding test system is 70% or more) |
| Clc1cccc(Nc2nccc(-c3ccnc(NCCc4ccccn4)c3)n2)c1 [Compound 90] | – | + (the activity observed in the corresponding test system is 70% or more) | + (the activity observed in the corresponding test system is 70% or more) |
| CC(CCc1ccccn1)Nc1cc(-c2ccnc(Nc3cccc(Cl)c3)n2)ccn1 (centres unmarked) [Compound 71] | + (the activity observed in the corresponding test system is 70% or more) | + (the activity observed in the corresponding test system is 70% or more) | – |
| CC(O)CNc1cc(-c2ccnc(Nc3cccc(Cl)c3)n2)ccn1 (centres unmarked) [Compound 76] | + (the activity observed in the corresponding test system is 70% or more) | + (the activity observed in the corresponding test system is 70% or more) | – |
| NCCCNc1cc(-c2ccnc(Nc3cccc(Cl)c3)n2)ccn1 [Compound 42] | + (the activity observed in the corresponding test system is 70% or more) | + (the activity observed in the corresponding test system is 70% or more) | + (the activity observed in the corresponding test system is 70% or more) |
| CC(CCN(C)C)Nc1cc(-c2ccnc(Nc3cccc(Cl)c3)n2)ccn1 (centres unmarked) [Compound 19] | – | – | + (the activity observed in the corresponding test system is 70% or more) |
| Clc1cccc(Nc2nccc(-c3ccnc(NCc4cccnc4)c3)n2)c1 [Compound 102] | – | + (the activity observed in the corresponding test system is 70% or more) | + (the activity observed in the corresponding test system is 70% or more) |
| CCC(=O)OCCCNc1cc(-c2ccnc(Nc3cccc(Cl)c3)n2)ccn1 [Compound 106] | + (the activity observed in the corresponding test system is 70% or more) | + (the activity observed in the corresponding test system is 70% or more) | + (the activity observed in the corresponding test system is 70% or more) |
| C[S+]([O-])CCNc1cc(-c2ccnc(Nc3cccc(Cl)c3)n2)ccn1 (centres unmarked) [Compound 74] | + (the activity observed in the corresponding test system is 70% or more) | – | – |
| CCC(COC(C)=O)Nc1cc(-c2ccnc(Nc3cccc(Cl)c3)n2)ccn1 (centres unmarked) [Compound 51] | + (the activity observed in the corresponding test system is 70% or more) | + (the activity observed in the corresponding test system is 70% or more) | – |
| COCN(C)c1cc(-c2ccnc(Nc3cccc(Cl)c3)n2)ccn1 [Compound 91] | + (the activity observed in the corresponding test system is 70% or more) | + (the activity observed in the corresponding test system is 70% or more) | – |
| Clc1cccc(Nc2nccc(-c3ccnc(NCc4ccco4)c3)n2)c1 [Compound 78] | – | – | + (the activity observed in the corresponding test system is 70% or more) |
| O=C(O)CNc1cc(-c2ccnc(Nc3cccc(Cl)c3)n2)ccn1 [Compound 3] | + (the activity observed in the corresponding test system is 70% or more) | + (the activity observed in the corresponding test system is 70% or more) | + (the activity observed in the corresponding test system is 70% or more) |
| CO[Si](CCCNc1cc(-c2ccnc(Nc3cccc(Cl)c3)n2)ccn1)(OC)OC [Compound 100] | – | – | + (the activity observed in the corresponding test system is 70% or more) |
| Clc1cccc(Nc2nccc(-c3ccnc(NCC4CCOC4)c3)n2)c1 (centres unmarked) [Compound 84] | + (the activity observed in the corresponding test system is 70% or more) | + (the activity observed in the corresponding test system is 70% or more) | + (the activity observed in the corresponding test system is 70% or more) |
| COC(CNc1cc(-c2ccnc(Nc3cccc(Cl)c3)n2)ccn1)OC [Compound 87] | + (the activity observed in the corresponding test system is 70% or more) | + (the activity observed in the corresponding test system is 70% or more) | – |
| Clc1cccc(Nc2nccc(-c3ccnc(NCc4ccccn4)c3)n2)c1 [Compound 79] | – | + (the activity observed in the corresponding test system is 70% or more) | + (the activity observed in the corresponding test system is 70% or more) |
| Clc1cccc(Nc2nccc(-c3ccnc(NC4CCOC4)c3)n2)c1 (centres unmarked) [Compound 2] | + (the activity observed in the corresponding test system is 70% or more) | + (the activity observed in the corresponding test system is 70% or more) | – |
| CCCCC(=O)Nc1cc(-c2ccnc(Nc3cccc(Cl)c3)n2)ccn1 [Compound 62] | + (the activity observed in the corresponding test system is 70% or more) | + (the activity observed in the corresponding test system is 70% or more) | – |
| CCCC(COC(C)=O)Nc1cc(-c2ccnc(Nc3cccc(Cl)c3)n2)ccn1 (centres unmarked) [Compound 53] | – | – | + (the activity observed in the corresponding test system is 70% or more) |
| CC(CCNc1cc(-c2ccnc(Nc3cccc(Cl)c3)n2)ccn1)n1ccnc1 (centres unmarked) [Compound 36] | – | + (the activity observed in the corresponding test system is 70% or more) | – |
| CC(=O)OCCNc1cc(-c2ccnc(Nc3cccc(Cl)c3)n2)ccn1 [Compound 52] | + (the activity observed in the corresponding test system is 70% or more) | + (the activity observed in the corresponding test system is 70% or more) | – |
| NCCNc1cc(-c2ccnc(Nc3cccc(Cl)c3)n2)ccn1 [Compound 1] | – | + (the activity observed in the corresponding test system is 70% or more) | – |
